From patent publication US10375956B2, “Herbicidally active 2-(substituted-phenyl)-cyclopentane-1,3-dione compounds and derivatives thereof” (Syngenta Limited, priority 2013, dated 2019)

Experiments:
Format in all cases: in vivo
[1] = tested on: Digitaria sanguinalis (DIGSA); assay: Biological Example 3 glasshouse assay, post-emergence, various adjuvant systems; conditions: 8 g/ha; for percentage control of Digitaria sanguinalis: adjuvant 0.5% v/v TEHP + 1.0% v/v AMS + 12.5% v/v IPA
Description: (§1) Post-emergence foliar spray application, 200 L/ha, usually one or two replicates for the weeds (depending on application rate), and two replicates for soybean.
(§2) Standard warm conditions (tropical), in glasshouse. Specifically, the glasshouse bay conditions are 24° C./18° C. day/night; 16/8 hours light/dark; 65% humidity.
(§3) The herbicidal application takes place at the following growth stages for plants which include inter alia one or more of the following plants (usually the herbicidal application takes place on at least the following plants: DIGSA, ELEIN, SETFA, ZEAMX, GLXMA Nikko, and GLXMA TMG133, and often also either BRADC or BRAPP):
Digitaria sanguinalis (DIGSA)—growth stage 12 or 13
(§4) Each test compound is applied with one of the following adjuvant systems (all percentages are final concentrations in the aqueous spray mixture):
(§5) Adjuvant system 2: 0.5% v/v Hexamoll™ DINCH**, 1.0% v/v AMS (ammonium sulphate) and 12.5% v/v IPA (isopropyl alcohol).
(§6) Adjuvant system 3: 0.5% v/v tris-(2-ethylhexyl)phosphate (“TEHP”), 1.0% v/v AMS (ammonium sulphate) and 12.5% v/v IPA (isopropyl alcohol).
(§7) Seeds of the weed (including volunteer) plants, typically including inter alia Digitaria sanguinalis (DIGSA), Eleusine indica (ELEIN), Setaria faberi (SETFA), Zea mays (ZEAMX, corn), and sometimes also [either Brachiaria decumbens (BRADC) or Brachiaria platyphylla (BRAPP)], are sown in seed trays (troughs) containing clay loam soil (pH 7.0, 2.2% organic matter, “Trough Mix A”); and soybean seed is sown in pots containing the same soil with 3 soybean seedlings per pot. The plants are sprayed with the test herbicide when they reach the growth stages mentioned above.
(§8) The test herbicidal solutions are prepared by mixing the appropriate aliquots of the test substance(s) and one of the adjuvant systems indicated above *** in deionised water to give the desired treatment concentration.
(§9) The herbicidal application is made as a foliar spray, using a tracksprayer. Following the herbicidal application, the plants are watered twice per day for the duration of the test.
(§10) A visual assessment of the % herbicidal damage is made 7 and 14 Days After herbicide Application (DAA) (or, in a minority of cases, 7 and 15 DAA), and the results are recorded as % visual herbicidal damage where 0%=no damage to plants and 100%=plant totally killed.
(§11) Compounds A2 and A7 were tested using the 0.5% v/v Hexamoll™ DINCH™+1.0% v/v AMS+12.5% v/v IPA adjuvant system. Compounds A11, A12, A14, A20 and A21 were tested using the 0.5% v/v tris-(2-ethylhexyl)phosphate (“TEHP”)+1.0% v/v AMS+12.5% v/v IPA adjuvant system.
(§12) The percentages of herbicidal damage/plant control, at 14 Days After herbicide Application (DAA) (or, in some cases, at 15 DAA), for the Compounds tested and for some of the plants tested, were in the following percentage ranges. For the tested compounds, the phytotoxicity results shown herein are generally the average of 2 or 3 repetitions (for the grassy weeds including corn) or the average of 2 repetitions (for soybean for most of the tested compounds). However, for Compound A2 on soybean there was 1 repetion only.

[2] = tested on: Glycine max (GLXMA, soybean) cultivar Nikko; assay: as above; conditions: 120 g/ha, crop
Description: as §1, §2, §3
Glycine max (GLXMA, soybean) cultivar “Nikko”—growth stage: 1st trifoliate
as §4, §5, §6, §7, §8, §9, §10, §11, §12

Eleusine indica (ELEIN) = assay: as above; conditions: 8 g/ha; for percentage control of Eleusine indica: adjuvant 0.5% v/v TEHP + 1.0% v/v AMS + 12.5% v/v IPA
Description: as §1, §2, §3
Eleusine indica (ELEIN)—growth stage 12 or 13
as §4, §5, §6, §7, §8, §9, §10, §11, §12

[3] = tested on: Brachiaria decumbens (BRADC); assay: as above; conditions: 8 g/ha, 14 DAA
Description: as §1, §2, §3
Brachiaria decumbens (BRADC)—growth stage (GS) 12 or 13 (or GS 12)—or, if BRADC is not used, then sometimes Brachiaria platyphylla (BRAPP)—growth stage 12 or 13
as §4, §5, §6, §7, §8, §9, §10
Compounds A2 and A7 were tested using the 0.5% v/v Hexamoll™ DINCH™+1.0% v/v AMS+12.5% v/v IPA adjuvant system. Compounds A11, A12, A14, A20 and A21 were tested using the 0.5% v/v tris-(2-ethylhexyl)phosphate (“TEHP”)+1.0% v/v AMS+12.5% v/v IPA adjuvant system. […]

[4] = tested on: Zea mays (ZEAMX, maize/corn) cultivar Garland; assay: as above; conditions: 8 g/ha; for percentage control of Zea mays: adjuvant 0.5% v/v TEHP + 1.0% v/v AMS + 12.5% v/v IPA
Description: as §1, §2, §3
Zea mays (ZEAMX, maize/corn, e.g. can occur as volunteer corn) cultivar “Garland”—growth stage 12 or 13
as §4, §5, §6, §7, §8, §9, §10, §11, §12
Zea mays (ZEAMX, maize, corn) is often present as a “volunteer” weed (“volunteer” corn) in fields where it was planted as a crop in preceding growing season(s) and where the present field crop is not corn.

[5] = tested on: Glycine max (GLXMA, soybean) cultivar TMG133 (Roundup Ready glyphosate-tolerant); assay: as above; conditions: 120 g/ha, crop
Description: as §1, §2, §3
Glycine max (GLXMA, soybean) cultivar “TMG133”—which is Roundup Ready™ glyphosate-tolerant soybean cultivar TMG133 (typically available from Monsanto in Brazil)—growth stage: 1st trifoliate.
as §4, §5, §6, §7, §8, §9, §10, §11, §12
Glycine max (GLXMA, soybean) cultivar “TMG133” is Roundup Ready™ glyphosate-tolerant soybean cultivar TMG133, and is typically available from Monsanto in Brazil.

Lolium perenne (LOLPE) = assay: Test 1 glasshouse assay, post-emergence herbicidal activity; conditions: 312 h, post-emergence (Example 1B Table 2), after 13 days, read-out: Percentage phytotoxicity LOLPE
Description: (§13) Seeds of a variety of test species are sown in standard soil in pots. After cultivation for one day (pre-emergence) or after 8 days cultivation (post-emergence) under controlled conditions in a glasshouse (at 24/16° C., day/night; 14 hours light; 65% humidity), the plants are sprayed with an aqueous spray solution derived from the formulation of the “technical” (i.e. unformulated) active ingredient in acetone/water (50:50) solution containing 0.5% Tween 20 (polyoxyethylene sorbitan monolaurate, CAS Registry Number 9005-64-5). The test plants are then grown on under controlled conditions in a glasshouse (at 24/16° C., day/night; 14 hours light; 65% humidity) and watered twice daily. After 13 days for pre- or post-emergence, the test is evaluated visually, and an assessed percentage phytotoxicity score is given for each herbicidal application on each plant species (where 100%=total damage to plant; 0%=no damage to plant).
(§14) Lolium perenne (LOLPE), Alopecurus myosuroides (ALOMY), Echinochloa crus-galli (ECHCG), and Avena fatua (AVEFA); these are all grassy monocotyledonous weeds. Cool climate crop plant: Triticum aestivum (TRZAW, winter wheat).

Avena fatua (AVEFA) = assay: as above; conditions: 312 h, post-emergence (Example 1B Table 2), after 13 days, read-out: Percentage phytotoxicity AVEFA
Description: as §13, §14

[6] = tested on: Triticum aestivum (TRZAW, winter wheat); assay: as above; conditions: 312 h, post-emergence (Example 1B Table 2), after 13 days, crop plant, read-out: Percentage phytotoxicity TRZAW
Description: as §13, §14

[7] = 14 DAA, adjuvant 0.5% v/v TEHP + 1.0% v/v AMS + 12.5% v/v IPA
[8] = 14 DAA, adjuvant 0.5% v/v Hexamoll DINCH + 1.0% v/v AMS + 12.5% v/v IPA
[9] = 15 DAA, adjuvant 0.5% v/v TEHP + 1.0% v/v AMS + 12.5% v/v IPA
[10] = 14 or 15 DAA, adjuvant 0.5% v/v TEHP + 1.0% v/v AMS + 12.5% v/v IPA

Structure (SMILES)	pest or weed control at 62.5 g/ha (Lolium perenne (LOLPE))	pest or weed control at 250 g/ha (Lolium perenne (LOLPE))	pest or weed control at 62.5 g/ha (Avena fatua (AVEFA))	pest or weed control at 250 g/ha (Avena fatua (AVEFA))	plant injury at 62.5 g/ha [6]	plant injury at 250 g/ha [6]	also measured
C#CCC1CC(=O)C(c2c(Cl)cc(-c3ccc(Cl)cc3)cc2OC)C1=O (stereo not drawn) [Compound A11, 2-[2-chloro-4-(4-chlorophenyl)-6-methoxyphenyl]-4-prop-2-ynylcyclopentane-1,3-dione]	–	–	–	–	–	–	percentage control of Digitaria sanguinalis ([1]; 14 DAA): 99%; percentage phytotoxicity on Glycine max cultivar Nikko [2, 7]: 15%; percentage control of Eleusine indica (Eleusine indica (ELEIN); 14 DAA): 95%; percentage control of Brachiaria decumbens (BRADC) ([3]; adjuvant 0.5% v/v TEHP + 1.0% v/v AMS + 12.5% v/v IPA): 99%; percentage control of Zea mays ([4]; 14 DAA): 100%; percentage phytotoxicity on Glycine max cultivar TMG133 [5, 7]: 12.5%
C#CCC1CC(=O)C(c2c(Cl)cc(-c3ccc(F)c(F)c3)cc2OC)C1=O (stereo not drawn) [Compound A13]	90%	100%	100%	100%	80%	80%	–
C#CCC1CC(=O)C(c2c(Cl)cc(-c3ccc(Cl)cn3)cc2OC)C1=O (stereo not drawn) [Compound A10]	100%	100%	100%	100%	90%	90%	–
C#CCC1CC(=O)C(c2c(C)cc(-c3ncc(Cl)cc3F)cc2C)C1=O (stereo not drawn) [Compound A3]	100%	100%	90%	100%	90%	90%	–
C#CCC1CC(=O)C(c2c(Cl)cc(-c3ccc(F)cc3)cc2OC)C1=O (stereo not drawn) [Compound A7]	–	–	–	–	–	–	percentage control of (phytotoxicity on) Digitaria sanguinalis (DIGSA) [1, 8]: 95%; percentage phytotoxicity on Glycine max cultivar Nikko [2, 8]: 2.5%; percentage control of (phytotoxicity on) Eleusine indica (ELEIN) (Eleusine indica (ELEIN); [8]): 91.7%; percentage control of (phytotoxicity on) Brachiaria decumbens (BRADC) ([3]; adjuvant 0.5% v/v Hexamoll DINCH + 1.0% v/v AMS + 12.5% v/v IPA): 95%; percentage control of (phytotoxicity on) Zea mays (ZEAMX, maize, corn) [4, 8]: 100%; percentage phytotoxicity on Glycine max cultivar TMG133 [5, 8]: 0%
C#CCC1CC(=O)C(c2c(C)cc(C)cc2C)C1=O (stereo not drawn) [Compound A23]	90%	100%	90%	90%	50%	70%	–
C#CCC1CC(=O)C(c2c(F)cc(-c3ccc(Cl)cc3)cc2OC)C1=O (stereo not drawn) [Compound A14]	–	80%	–	100%	–	70%	percentage control of Digitaria sanguinalis ([1]; 15 DAA): 85%; percentage phytotoxicity on Glycine max cultivar Nikko [2, 9]: 5%; percentage control of Eleusine indica (Eleusine indica (ELEIN); 15 DAA): 20%; percentage control of Zea mays ([4]; 15 DAA): 90%; percentage phytotoxicity on Glycine max cultivar TMG133 [5, 9]: 5%
C#CCC1CC(=O)C(c2c(F)cc(-c3ccc(F)cc3)cc2OC)C1=O (stereo not drawn) [Compound A20, 2-[2-fluoro-4-(4-fluorophenyl)-6-methoxyphenyl]-4-prop-2-ynylcyclopentane-1,3-dione]	–	–	–	–	–	–	percentage control of Digitaria sanguinalis ([1]; 14 or 15 DAA): 75%; percentage phytotoxicity on Glycine max cultivar Nikko [2, 10]: 2%; percentage control of Eleusine indica (Eleusine indica (ELEIN); 14 or 15 DAA): 15%; percentage control of Zea mays ([4]; 14 or 15 DAA): 90%; percentage phytotoxicity on Glycine max cultivar TMG133 [5, 10]: 10%
C#CCC1CC(=O)C(c2c(F)cc(-c3ccc(Cl)cn3)cc2Cl)C1=O (stereo not drawn) [Compound A8]	70%	100%	90%	100%	80%	80%	–
C#CCC1CC(=O)C(c2c(F)cc(-c3ccc(F)cc3F)cc2OC)C1=O (stereo not drawn) [Compound A21]	–	–	–	–	–	–	percentage control of Digitaria sanguinalis ([1]; 14 or 15 DAA): 45%; percentage phytotoxicity on Glycine max cultivar Nikko [2, 10]: 5%; percentage control of Eleusine indica (Eleusine indica (ELEIN); 14 or 15 DAA): 25%; percentage control of Zea mays ([4]; 14 or 15 DAA): 95%; percentage phytotoxicity on Glycine max cultivar TMG133 [5, 10]: 5%
C#CCC1CC(=O)C(c2c(F)cc(-c3ccc(Cl)cc3)cc2Cl)C1=O (stereo not drawn) [Compound A6, 2-[2-chloro-4-(4-chlorophenyl)-6-fluorophenyl]-4-prop-2-ynylcyclopentane-1,3-dione]	–	80%	–	90%	–	80%	–
C#CCC1CC(=O)C(c2c(CC)cc(C)cc2CC)C1=O (stereo not drawn) [Compound A25, 2-(2,6-diethyl-4-methyl-phenyl)-4-(prop-2-ynyl)-cyclopentane-1,3-dione]	100%	100%	100%	100%	30%	60%	–
C#CCC1C(=O)C(c2c(C)cc(C)cc2C)C(=O)C1CC#C (stereo not drawn) [Compound A42]	–	100%	–	80%	–	20%	–
